Assay results: patent US12060347B2 (BRISTOL-MYERS SQUIBB COMPANY, priority 2016, dated 2024)

Target: T1, human PAR4 (Homo sapiens, UniProt Q96RI0)
T1 construct: expressed in transfected cells; host or cells: HEK293 PAR4 Clone 1.2A (BMS Arctic ID 383940)
T1 sequence (Q96RI0 18-385): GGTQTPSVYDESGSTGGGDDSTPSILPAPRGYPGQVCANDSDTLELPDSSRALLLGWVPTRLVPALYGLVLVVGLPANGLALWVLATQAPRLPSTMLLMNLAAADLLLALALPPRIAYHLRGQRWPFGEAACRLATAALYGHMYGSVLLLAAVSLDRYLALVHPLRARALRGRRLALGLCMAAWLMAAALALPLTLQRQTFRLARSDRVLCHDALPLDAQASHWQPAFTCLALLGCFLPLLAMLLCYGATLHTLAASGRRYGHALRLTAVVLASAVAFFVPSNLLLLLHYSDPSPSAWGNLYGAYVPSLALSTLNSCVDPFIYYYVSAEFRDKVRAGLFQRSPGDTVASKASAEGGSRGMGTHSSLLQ
Experiment: PAR4 FLIPR assay: antagonism of agonist-peptide-induced calcium mobilization in PAR4-expressing HEK293 cells
Format: cell-based
Conditions: H-Ala-Phe(4-F)-[…]NH2-induced intracellular calcium mobilization, 11-point curves

| IC50 | Compound |
| --- | --- |
| 2.9 nM | COc1cnc2c(-c3nc4cc(F)c(OC[C@@H](C)OC(=O)Nc5ccnc(OCCO)c5)nc4s3)cc(C)cc2n1 [Example 697, (R)-1-((6-fluoro-2-(2-methoxy-7-methylquinoxalin-5-yl)thiazolo[5,4-b]pyridin-5-yl)oxy) propan-2-yl (2-(2-hydroxyethoxy)pyridin-4-yl)carbamate] |
| 17 nM | Cc1cc(-c2nc3ccccc3s2)c2ncc(OC(F)F)nc2c1 [Example 4, 2-(2-(difluoromethoxy)-7-methylquinoxalin-5-yl)benzo[d]thiazole] |
| 0.9 nM | COc1cnc2c(-c3nc4cc(F)c(O[C@@H](C)[C@@H](C)OC(=O)Nc5ccc(CC(C)(C)O)nc5)cc4s3)cc(C)cc2n1 [Example 559, (2R,3S)-3-((5-fluoro-2-(2-methoxy-7-methylquinoxalin-5-yl)benzo[d]thiazol-6-yl)oxy)butan-2-yl (6-(2-hydroxy-2-methylpropyl)pyridin-3-yl)carbamate] |
| 1.7 nM | COCc1cnc2c(-c3nc4c(C)cc(OCCNS(=O)(=O)c5cccc(F)c5)cc4s3)cc(C)cc2n1 [Example 97, 3-fluoro N-(2-(2-(2-(methoxymethyl)-7-methylquinoxalin-5-yl)-4-methylbenzo[d]thiazol-6-yloxy)ethyl)benzenesulfonamide] |
| 1.7 nM | COc1cnc2c(-c3nc4c(Cl)c(F)c(OC[C@@H](C)OC(=O)Nc5cnc6c(c5)CC=N6)cc4s3)cc(C)cc2n1 [Example 375, (R)-1-((4-chloro-5-fluoro-2-(2-methoxy-7-methylquinoxalin-5-yl)benzo[d]thiazol-6-yl)oxy)propan-2-yl 3H-pyrrolo [2,3-b]pyridin-5-yl carbamate] |
| 8.3 nM | COCc1cnc2c(-c3nc4c(C#N)cc(OCCNS(=O)(=O)c5ccc(F)cc5)cc4s3)cc(C)cc2n1 [Example 109, N-(2-(4-cyano-2-(2-(methoxymethyl)-7-methylquinoxalin-5-yl)benzo[d]thiazol-6-yloxy)ethyl)-4-fluorobenzenesulfonamide] |
| 0.8 nM | COc1cnc2c(-c3nc4cc(F)c(OC[C@@H](C)OC(=O)Nc5ccnc(C(N)=O)c5)cc4s3)cc(C)cc2n1 [Example 444, (R)-1-((5-fluoro-2-(2-methoxy-7-methylquinoxalin-5-yl)benzo[d]thiazol-6-yl)oxy)propan-2-yl (2-carbamoylpyridin-4-yl)carbamate] |
| 0.4 nM | COc1cnc2c(-c3nc4cc(F)c(OC[C@@H](C)OC(=O)Nc5cncnc5)cc4s3)cc(C)cc2n1 [Example 409, (R)-1-((5-fluoro-2-(2-methoxy-7-methylquinoxalin-5-yl)benzo[d]thiazol-6-yl)oxy)propan-2-yl pyrimidin-5-ylcarbamate] |
| 2.4 nM | CCOc1cnc2c(-c3nc4cc(F)c(O[C@@H](C)[C@@H](C)OC(=O)Nc5cnc(OCCO)nc5)cc4s3)cc(C)cc2n1 [Example 568, (2R,3S)-3-((2-(2-ethoxy-7-methylquinoxalin-5-yl)-5-fluorobenzo[d]thiazol-6-yl)oxy)butan-2-yl (2-(2-hydroxyethoxy)pyrimidin-5-yl)carbamate] |
| 5.2 nM | COc1cnc2c(-c3nc4cc(F)c(O[C@@H](C)[C@@H](C)OC(=O)Nc5ccnc(CCO)c5)cc4s3)cc(C)cc2n1 [Example 547, (2R,3S)-3-((5-fluoro-2-(2-methoxy-7-methylquinoxalin-5-yl)benzo[d]thiazol-6-yl)oxy)butan-2-yl (2-(2-hydroxyethyl)pyridin-4-yl)carbamate] |
| 0.8 nM | COc1cnc2c(-c3nc4cc(F)c(O[C@@H](C)[C@@H](C)OC(=O)Nc5ccc(C(C)(C)O)nc5)nc4s3)cc(C)cc2n1 [Example 765, (2R,3S)-3-((6-fluoro-2-(2-methoxy-7-methylquinoxalin-5-yl)thiazolo[5,4-b]pyridin-5-yl)oxy)butan-2-yl (6-(2-hydroxypropan-2-yl)pyridin-3-yl)carbamate] |
| 1.9 nM | COCc1cnc2c(-c3nc4c(Cl)c(F)c(OC)cc4s3)cc(C)cc2n1 [Example 283, 4-chloro-5-fluoro-6-methoxy-2-(2-(methoxymethyl)-7-methylquinoxalin-5-yl)benzo[d]thiazole] |
| 24 nM | COc1cnc2c(-c3nc4cc(F)c(O[C@@H](C)[C@@H](C)OC(=O)Nc5cnc(CO)nc5)nc4s3)cc(Cl)cc2c1 [Example 793, (2R,3S)-3-((2-(6-chloro-3-methoxyquinolin-8-yl)-6-fluorothiazolo[5,4-b]pyridin-5-yl)oxy)butan-2-yl (2-(hydroxymethyl)pyrimidin-5-yl)carbamate] |
| 0.8 nM | COc1cnc2c(-c3nc4cc(F)c(O[C@@H](C)[C@@H](C)OC(=O)Nc5cnc(C(=O)N(C)C)nc5)cc4s3)cc(C)cc2n1 [Example 468, (2R,3S)-3-((5-fluoro-2-(2-methoxy-7-methylquinoxalin-5-yl)benzo[d]thiazol-6-yl)oxy)butan-2-yl (2-(dimethylcarbamoyl)pyrimidin-5-yl)carbamate] |
| 0.6 nM | COc1cnc2c(-c3nc4cc(F)c(OC[C@@H](C)OC(=O)Nc5ccc(C(N)=O)nc5)cc4s3)cc(C)cc2n1 [Example 433, (R)-1-((5-fluoro-2-(2-methoxy-7-methylquinoxalin-5-yl)benzo[d]thiazol-6-yl)oxy)propan-2-yl (6-carbamoylpyridin-3-yl)carbamate] |
| 5.3 nM | COc1cc(C(O)c2ccccc2C(C)C)c2nc(-c3cc(C)cc4nc(OC)cnc34)sc2c1 (centres unmarked) [Example 643, (2-isopropylphenyl)(6-methoxy-2-(2-methoxy-7-methylquinoxalin-5-yl)benzo[d]thiazol-4-yl)methanol] |
| 9.7 nM | Cc1cc(-c2cc3cc(OCC(=O)OC(C)(C)C)ccc3o2)c2ncc(OC(F)F)nc2c1 [Example 49, tert-butyl 2-(2-(2-(difluoromethoxy)-7-methylquinoxalin-5-yl)benzofuran-5-yloxy) acetate] |
| 4.5 nM | COc1cnc2c(-c3nc4cc(F)c(OC[C@@H](C)OC(=O)Nc5cnc(OC[C@@H](C)O)nc5)nc4s3)cc(C)cc2n1 [Example 688, (R)-1-((6-fluoro-2-(2-methoxy-7-methylquinoxalin-5-yl)thiazolo[5,4-b]pyridin-5-yl)oxy) propan-2-yl (2-((R)-2-hydroxypropoxy)pyrimidin-5-yl)carbamate] |
| 1.1 nM | COc1cnc2c(-c3nc4c(Cl)c(F)c(OC)cc4s3)cc(C)cc2n1 [Example 282, 4-chloro-5-fluoro-6-methoxy-2-(2-methoxy-7-methylquinoxalin-5-yl)benzo[d]thiazole] |
| 1.3 nM | COc1cnc2c(-c3nc4c(Cl)c(F)c(OC[C@@H](C)OC(=O)Nc5cccnc5)cc4s3)cc(C)cc2n1 [Example 372, (R)-1-((4-chloro-5-fluoro-2-(2-methoxy-7-methylquinoxalin-5-yl)benzo[d]thiazol-6-yl)oxy)propan-2-yl pyridin-3-ylcarbamate] |
| 2.6 nM | COc1cnc2c(-c3nc4c(F)c(F)c(OC)cc4s3)cc(CO)cc2n1 [Example 220, (8-(4,5-difluoro-6-methoxybenzo[d]thiazol-2-yl)-3-methoxyquinoxalin-6-yl)methanol] |
| 1 nM | CCOc1cnc2c(-c3nc4cc(F)c(OC[C@@H](C)OC(=O)Nc5cnc(C)nc5)nc4s3)cc(C)cc2n1 [Example 813, (R)-1-((2-(2-ethoxy-7-methylquinoxalin-5-yl)-6-fluorothiazolo[5,4-b]pyridin-5-yl)oxy)propan-2-yl (2-methylpyrimidin-5-yl)carbamate] |
| 1.4 nM | COc1cnc2c(-c3nc4c(C)cc(OCCOC(=O)Nc5cncc(C#N)c5)cc4s3)cc(C)cc2n1 [Example 116, 2-(2-(2-methoxy-7-methylquinoxalin-5-yl)-4-methylbenzo[d]thiazol-6-yloxy)ethyl 5-cyanopyridin-3-ylcarbamate] |
| 2.6 nM | COc1cnc2c(-c3nc4cc(F)c(O[C@@H](C)[C@@H](C)OC(=O)Nc5ccc6[nH]c(=O)oc6c5)nc4s3)cc(C)cc2n1 [Example 708, (2R,3S)-3-((6-fluoro-2-(2-methoxy-7-methylquinoxalin-5-yl)thiazolo[5,4-b]pyridin-5-yl)oxy)butan-2-yl (2-oxo-2,3-dihydrobenzo[d]oxazol-6-yl)carbamate] |
| 0.9 nM | COc1cnc2c(-c3nc4cc(F)c(O[C@@H](C)[C@@H](C)OC(=O)Nc5cncc(OCCO)c5)cc4s3)cc(C)cc2n1 [Example 534, (2R,3S)-3-((5-fluoro-2-(2-methoxy-7-methylquinoxalin-5-yl)benzo[d]thiazol-6-yl)oxy) butan-2-yl (5-(2-hydroxyethoxy)pyridin-3-yl)carbamate] |
| 1.4 nM | COc1cnc2c(-c3nc4c(C)cc(OCCNS(=O)(=O)c5ccc(C)cc5)nc4s3)cc(C)cc2n1 [Example 762, N-(2-((2-(2-methoxy-7-methylquinoxalin-5-yl)-7-methylthiazolo[5,4-b]pyridin-5-yl)oxy)ethyl)-4-methylbenzenesulfonamide] |
| 16 nM | COC(=O)COc1cc2sc(-c3cc(C)cc4nc(OC)cnc34)nc2c(C)c1F [Example 285, methyl 2-((5-fluoro-2-(2-methoxy-7-methylquinoxalin-5-yl)-4-methylbenzo[d]thiazol-6-yl)oxy)acetate] |
| 1.2 nM | COCc1cnc2c(-c3nc4ccccc4s3)cc(C)cc2n1 [Example 256, 2-(2-(methoxymethyl)-7-methylquinoxalin-5-yl)benzo[d]thiazole] |
| 1.7 nM | COCc1cnc2c(-c3nc4ccc(OC)nc4s3)cc(C)cc2n1 [Example 147] |
